Measured values as given in publication PMC10070186, “Unusual peptide-binding proteins guide pyrroloindoline alkaloid formation in crocagin biosynthesis” (Nature Chemistry, 2023).
“Also recorded” adds a separate entry of the source.

Legend:
CgnE [1] = assay: ICP-MS iron binding to CgnE; design: species or system Chondromyces crocatus CM c5; settings: 5 mM fresh FeCl2, 30 min, PD10 desalting
Method: Inductively Couple Plasma-Mass Spectrometry
Experimental solutions were analysed using an Agilent 7500ce fitted with a self-aspire nebuliser tuned for a flow of 0.1 mL min-1 at the Scottish Universities Environmental Research Centre (SUERC).
Samples were initially diluted to a protein concentration of 2 µM in 0.8 M HNO3. CgnB was dialyzed 4 x for 1 h at a dilution of 1 : 5000 in buffer containing 100 mM EDTA prior to analysis. CgnE was incubated with freshly prepared FeCl2 for 30 min (5 mM final FeCl2 concentration) and then subjected to a PD10 desalting column in CgnE buffer before the protein was diluted in HNO3 for analysis. For Fe2+ analysis, flow in the collision cell was set to 2 mL min -1 of H. The metal concentration was calculated by reference to a three -standard calibration line. Each sample value was corrected for procedural blank containing ultrapure water and 0.8 M HNO 3.
CgnB and CgnE sequences were compared with TBLA STN[22] to whole-genome shotgun contigs of taxa listed in (Supplementary table 4). We have retrieved the corresponding genome segments and identified tandem appearances of homologous genes, as well as searched for candidate peptides in their genomic neigh borhood with custom Python and Perl scripts. Phylogenetic trees were constructed with RAxML[23] using the PROTGAMMAJTT model. Bootstrap values were computed using 100 bootstrap […]

CsrA = settings: in vitro; cited from earlier work
Description: Their biosynthesis begins with the ribosomal expression of a short gene to yield a precursor peptide that usually consists of an N-terminal ‘leader’ and a C-terminal ‘core’ peptide. While the leader peptide is important for substrate recognition by the enzyme(s) installing class-defining modifications, the core peptide is ultimately converted into the final product and can be extensively modified[17]–[19]. Fe ...

CgnD [2] = assay: Labeling of CgnD with PMSF (LC-MS); type: biochemical, Chondromyces crocatus CM c5; settings: 10 µM CgnD, 10-fold excess PMSF, room temperature, 10 min
Method: All structural images portrayed were rendered in PyMOL (The PyMOL Molecular Graphics System Version 1.8.6.0, Schrödinger, LLC).
Purified, lyophilized 3a/b (see above) was dissolved in 20 mM sodium phosphate pH 7.2 containing 5%
D2O. A similar sample of unmodified CgnA was analyzed for comparison. 1D 1H, 2D {1H,1H} NOESY, TOCSY and DQF-COSY and 2D {13C,1H} HSQC spectra were recorded for each sample on a Bruker AVANCE IIIHD/Ultrashield 600 spectrometer equipped with a TCI cryoprobe using Bruker TopSpin 3.5 software. After excluding peaks from unmodified CgnA in the modified sample, the assignments of the C-terminal residues of the modified CgnA species were made using COSY, TOCSY and inter - residue NOE cross peaks using CCPNMR analysis assign v3. 13C shifts were identified from the HSQC spectra where sensitivity allowed. The majority of the expected resonances were easily identified, but the near-degeneracy of the former tyrosine Hα and Hβ shifts meant that the nOe cross peaks required to identify the stereochemistry at the tyrosine Cβ were not resolved. Indeed, the observation of two separate […]
Phenylmethylsulfonylfluoride (PMSF) can selectively modifying the catalytic serine of serine hydrolases via the formation of a covalent bond with the protein and can therefore be detected even in denaturing LC-MS conditions by a positive mass shift corresponding to the compound[21]. […]

CgnB, CgnC and CgnE = assay: In vitro processing of CgnA and variants by CgnB, CgnC and CgnE (LC-MS); type: biochemical, Chondromyces crocatus CM c5
Method: All biochemical reactions were performed in 150 mM NaCl, 10 mM HEPES, 0.5 mM TCEP, pH 7.4. For CgnA–CgnB–CgnC reactions, a mixture of 50 µM CgnA, 10 µM CgnB, 5 µM CgnC, 4 mM ascorbic acid, 2.5 mM FeCl2 and 1 mM 2-oxoglutaric acid was incubated at 37 °C for 2 h. For CgnA–CgnB–CgnC–CgnE reactions, a mixture of 50 µM CgnA, 10 µM CgnB, 5 µM CgnC, 5 µM CgnE, 4 mM ascorbic acid, 2.5 mM FeCl2 and 1 mM 2-oxoglutaric acid was incubated at 37 °C for 2 h. The standard reaction volume was 50 µl. Proteins were precipitated by adding 50% acetonitrile and freezing the mixture at −80 °C for 2 h prior to liquid chromatography and mass spectrometry (LC-MS) analysis.

CgnB = assay: MST binding of CgnA (or leader peptide) to CgnB; design: species or system Chondromyces crocatus CM c5
Method: (§1) Supplementary Figure 13: Analysis of protein complexes using SEC and MST. a MST measurements to determine KDs of the protein pairs given. X/Y – Affinity of fluorescently labeled X to Y (titrated). + Z: Z was supplied at a constant, high concentration. […]
(§2) Both samples were incubated at room temperature for 10 min prior to LC-MS analysis.
(§3) Microscale Thermophoresis
(§4) MST binding affinity measurements were performed using a Monolith NT 115 system (Nanotemper Technologies) with MO.Control v1.6 software. Labeling of different proteins was performed using the Monolith Labeling Kit RED-NHS 2nd generation according to the manufacturer’s instructions. For this, a 10 µM dilution of the desired protein was prepared in the supplied labeling buffer NHS (130 mM NaHCO3, 50 mM NaCl, pH 8.2). To yield a 600 μM dye solution, 25 μL DMSO was added to dry powder. For the labeling procedure, 7 μL of the freshly prepared dye solution was mixed with 7 μL of […]

CgnC = assay: MST binding of CgnA to CgnC; design: species or system Chondromyces crocatus CM c5; settings: CgnC titrated
Method: as §1, §2, §3, §4

CgnE [3] = assay: MST binding of CgnA (or leader peptide) to CgnE; design: species or system Chondromyces crocatus CM c5
Method: as §1, §2, §3, §4
Target sequence in this assay (as listed by the source): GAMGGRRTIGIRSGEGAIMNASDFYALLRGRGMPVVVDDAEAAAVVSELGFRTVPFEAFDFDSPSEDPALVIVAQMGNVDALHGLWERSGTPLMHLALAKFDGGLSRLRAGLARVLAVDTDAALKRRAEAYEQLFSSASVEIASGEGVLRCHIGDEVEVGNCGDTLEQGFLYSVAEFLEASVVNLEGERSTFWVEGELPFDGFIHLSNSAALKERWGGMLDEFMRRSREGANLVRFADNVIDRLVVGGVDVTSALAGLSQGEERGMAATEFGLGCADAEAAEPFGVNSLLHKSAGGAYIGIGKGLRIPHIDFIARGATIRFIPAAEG

CgnD [4] = assay: MST binding to CgnD; design: species or system Chondromyces crocatus CM c5; settings: microscale thermophoresis
Target sequence in this assay (as listed by the source): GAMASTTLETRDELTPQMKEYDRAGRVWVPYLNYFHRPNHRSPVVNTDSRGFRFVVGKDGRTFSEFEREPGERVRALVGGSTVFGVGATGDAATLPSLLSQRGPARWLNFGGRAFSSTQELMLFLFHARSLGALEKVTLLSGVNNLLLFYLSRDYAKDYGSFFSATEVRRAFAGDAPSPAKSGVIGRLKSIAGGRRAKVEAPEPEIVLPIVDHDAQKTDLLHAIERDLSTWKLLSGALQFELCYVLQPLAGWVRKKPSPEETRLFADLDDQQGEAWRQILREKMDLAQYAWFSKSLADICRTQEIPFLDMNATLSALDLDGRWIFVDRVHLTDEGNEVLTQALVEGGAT

CgnC, sequence (as listed by the source): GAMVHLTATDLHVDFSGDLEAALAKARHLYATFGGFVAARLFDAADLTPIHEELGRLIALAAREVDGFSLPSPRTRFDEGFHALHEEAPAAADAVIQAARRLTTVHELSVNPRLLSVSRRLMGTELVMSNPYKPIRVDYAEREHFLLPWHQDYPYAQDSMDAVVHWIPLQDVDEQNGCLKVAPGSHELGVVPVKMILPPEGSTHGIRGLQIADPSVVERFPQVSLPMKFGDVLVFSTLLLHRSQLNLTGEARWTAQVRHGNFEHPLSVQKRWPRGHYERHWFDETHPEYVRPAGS

For [Cl][Fe][Cl] [FeCl2], the “iron bound to CgnE” value (CgnE [1]) was “No iron could be detected”.

In the case of CC[C@H](C)[C@H](NC)C(=O)N[C@@H]1C(=O)N2[C@H](C(=O)O)[C@@H](OC(N)=O)[C@@H]3c4ccccc4N([C@@H]1c1ccc(O)cc1)[C@@H]32 [compound 1, crocagin A], the “inhibition of CsrA” value (CsrA) is given as “inhibits”.

For O=S(=O)(F)Cc1ccccc1 [phenylmethylsulfonyl fluoride], the “covalent labeling of CgnD” value (CgnD [2]) was “inability to label CgnD”.

For “Ile-Tyr-Trp [core peptide, three-amino-acid core peptide of CgnA (Ile-Tyr-Trp for crocagin)]”, the “turnover of the core peptide with leader peptide in trans” value (CgnB, CgnC and CgnE; CgnB–CgnC–CgnE reaction, leader peptide added in trans) was “marginal”.

For MTMKKTIKQISAGDRSKKGNIYW [CgnA], the “CgnA–CgnB interaction relative to CgnA–CgnE” value (CgnB; MST KD 10.5 vs 1.8 µM) was “five times weaker”, the “CgnA–CgnB KD relative to SPR value” (CgnB; MST vs surface plasmon resonance of ref 24) was “approximately one order of magnitude lower” and the Kd (CgnB; MST, Monolith NT 115, RED-NHS label, CgnB titrated, three independent samples, mean ± SD, read-out: KD (affinity) of CgnA–CgnB) was 10.5 µM. For the same molecule, the “affinity of CgnA–CgnB in presence of CgnE” value (CgnB; MST, CgnE 250 µM constant, CgnB titrated) was “No binding; also recorded: we did not observe binding”, the “affinity of CgnA–CgnC” value (CgnC) was “No binding; also recorded: not CgnC, were able to bind CgnA” and the Kd (CgnE [3]; Monolith NT 115, for CgnA: CgnE titrated, three independent samples, mean ± SD, read-out: KD (affinity) to CgnE) was 1.8 µM. The “weaker binding to CgnE than CgnA” value (CgnE [3]; leader peptide vs CgnA) was ~300 times, the “binding to CgnD” value (CgnD [4]) was “unable to detect binding” and the “processing by CgnB, CgnC and CgnE (product formation/turnover)” value (CgnB, CgnC and CgnE; 50 µM CgnA, 10 µM CgnB, 5 µM CgnC, 5 µM CgnE, 4 mM ascorbic acid, 2.5 mM FeCl2, 1 mM 2-oxoglutaric acid, pH 7.4, 37 °C, 2 h, LC-MS) was “formation of a major product with high turnover; also recorded: consumption of CgnA (magenta) and the formation of a major product (+14 Da, blue) as well as minor products (+16 Da, green; +30 Da”. For the same molecule, the “product formation with CgnB and CgnC” value (CgnB, CgnC and CgnE; 50 µM CgnA, 10 µM CgnB, 5 µM CgnC, cofactors, 37 °C, 2 h) was “two additional product peaks detected when compared to CgnA–CgnE or CgnA–CgnC reactions”, the “product formation with CgnC and CgnE” value (CgnB, CgnC and CgnE; CgnA + CgnC + CgnE with cofactors) was “formation of an additional, minor peak with a mass shift of +28 Da” and the “product formation with CgnC and cofactors” value (CgnB, CgnC and CgnE; CgnA + CgnC + FeCl2, ascorbic acid, α-ketoglutarate) was “a new peak with a mass suggestive of hydroxylation (+16 Da), but the predominant peak remained unmodified CgnA; also recorded: formation of a minor +16 Da species”. The “product formation with CgnC, no cofactors” value (CgnB, CgnC and CgnE; CgnA + CgnC without FeCl2, ascorbic acid and α-ketoglutarate) was “did not lead to observable product formation” and the “product formation without CgnC” value (CgnB, CgnC and CgnE; CgnA with CgnB, CgnE or both, LC-MS) was “did not result in any observable product peak”.
